Measurements as given in patent US20210371461A1, “Novel chemiluminescent substrates for Factor Xa” (Enzyre B.V., priority 2018, published 2021).
Where a SMILES comes first, the peptide text is derived from it. The star is where a group is joined. X1 = O=C(O)[C@H]1CSC(c2nc3ccc(N*)cc3s2)=N1; Decanoyl(3,6,9-trioxa) = COCCOCCOCC(=O)*

Key:
Format in all cases: biochemical
FXa [1] = target: T1, FXa (Homo sapiens, UniProt P00742); test: Michaelis-Menten kinetics of substrate with FXa (luciferase luminescence); conditions: FXa concentration 1.6 nM
T1 construct: purchased Coachrom
T1 sequence (P00742 235-488 limits assumed): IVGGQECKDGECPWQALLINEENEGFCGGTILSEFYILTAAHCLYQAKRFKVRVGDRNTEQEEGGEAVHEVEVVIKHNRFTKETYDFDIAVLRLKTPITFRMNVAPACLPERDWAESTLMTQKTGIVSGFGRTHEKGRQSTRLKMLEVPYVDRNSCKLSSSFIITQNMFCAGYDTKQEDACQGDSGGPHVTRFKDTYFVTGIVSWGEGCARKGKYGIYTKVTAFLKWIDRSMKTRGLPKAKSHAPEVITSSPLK
T1 sequence (P00742 41-179 partner limits assumed): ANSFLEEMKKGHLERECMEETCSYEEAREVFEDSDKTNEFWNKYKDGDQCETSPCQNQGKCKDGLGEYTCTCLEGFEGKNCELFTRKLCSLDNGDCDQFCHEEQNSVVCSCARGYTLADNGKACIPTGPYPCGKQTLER
Protocol: Michaelis-Menten kinetics were determined for the enzyme FXa and its substrate MePEG2-IEGR (the TFA salt was used in these examples). The following composition was prepared in a microvial on ice:
160 μL Tris buffered saline (TBS) 50 mM Tris-HCI, 150 mM NaCI (pH 7.4)
4 μL ATP (final concentration 333 μM)
4 μL MgC2 (final concentration 8.3 mM)
12 μL Luciferase (final concentration 0.9 mg/ml)
Substrate compositions 2a-g:
Microvials were prepared with 30 μL substrate concentrations leading to final concentrations of 2000, 1333, 1000, 666, 333, 167 and 66 μM.
FXa (Coachrom, 16 nM) composition was prepared in a microvial on ice
Subsequently, the following compositions were added together in a white 384-well plate:
Subsequently the well plate was placed in a 37 ° C. thermostated Flexstation 3 (Molecular Devices). Luminescence emission wavelength was with an integration time of 1500 ms, measured for 1s every 30 s during 30 min.

FXa [2] = target: T1, FXa; test: Cross reactivity assay, FXa; conditions: compared with thrombin, plasmin, tPA, FXlla
Protocol: (§1) To determine cross-reactivity an assay was performed using a range of coagulation enzymes at representative concentrations in human plasma. […] For tissue-type plasminogen activator (tPA) this is the conventional concentration for facilitation of fibrinolysis. A concentration of 80 nm FXa yielded a signal of 1.000.000 RLU.

thrombin = target: T2, thrombin (Homo sapiens, UniProt P00734); test: Cross reactivity assay, thrombin; conditions: 52 nM thrombin
T2 construct: FXa acts by cleaving prothrombin, yielding active thrombin
Protocol: as §1

plasmin = plasmin (Homo sapiens, UniProt P00747); test: Cross reactivity assay, plasmin; conditions: 8 nM plasmin
plasmin, sequence (P00747 581-810 limits assumed): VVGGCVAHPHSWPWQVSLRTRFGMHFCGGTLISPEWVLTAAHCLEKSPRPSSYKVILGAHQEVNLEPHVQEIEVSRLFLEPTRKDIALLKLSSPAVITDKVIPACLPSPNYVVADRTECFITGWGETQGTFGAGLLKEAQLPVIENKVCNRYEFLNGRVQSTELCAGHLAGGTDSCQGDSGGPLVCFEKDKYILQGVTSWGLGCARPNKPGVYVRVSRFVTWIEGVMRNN
plasmin, sequence (P00747 97-580 partner limits assumed): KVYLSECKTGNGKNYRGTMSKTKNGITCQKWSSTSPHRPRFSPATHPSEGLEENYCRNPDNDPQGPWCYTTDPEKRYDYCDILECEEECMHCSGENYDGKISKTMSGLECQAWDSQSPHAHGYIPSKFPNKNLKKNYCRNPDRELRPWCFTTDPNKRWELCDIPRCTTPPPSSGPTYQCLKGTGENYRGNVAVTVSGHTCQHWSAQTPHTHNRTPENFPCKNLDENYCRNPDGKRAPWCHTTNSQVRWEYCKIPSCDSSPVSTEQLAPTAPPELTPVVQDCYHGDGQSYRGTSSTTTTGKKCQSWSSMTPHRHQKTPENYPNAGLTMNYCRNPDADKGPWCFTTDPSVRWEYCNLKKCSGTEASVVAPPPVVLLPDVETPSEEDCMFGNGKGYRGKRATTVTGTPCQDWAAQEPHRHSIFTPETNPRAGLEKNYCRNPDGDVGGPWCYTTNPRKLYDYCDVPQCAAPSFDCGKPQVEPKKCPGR
Protocol: as §1

[3] = target: tissue-type plasminogen activator (tPA) (Homo sapiens, UniProt P00750); test: Cross reactivity assay, tPA; conditions: 193 IU/mL tPA
tissue-type plasminogen activator (tPA), sequence (P00750 36-562): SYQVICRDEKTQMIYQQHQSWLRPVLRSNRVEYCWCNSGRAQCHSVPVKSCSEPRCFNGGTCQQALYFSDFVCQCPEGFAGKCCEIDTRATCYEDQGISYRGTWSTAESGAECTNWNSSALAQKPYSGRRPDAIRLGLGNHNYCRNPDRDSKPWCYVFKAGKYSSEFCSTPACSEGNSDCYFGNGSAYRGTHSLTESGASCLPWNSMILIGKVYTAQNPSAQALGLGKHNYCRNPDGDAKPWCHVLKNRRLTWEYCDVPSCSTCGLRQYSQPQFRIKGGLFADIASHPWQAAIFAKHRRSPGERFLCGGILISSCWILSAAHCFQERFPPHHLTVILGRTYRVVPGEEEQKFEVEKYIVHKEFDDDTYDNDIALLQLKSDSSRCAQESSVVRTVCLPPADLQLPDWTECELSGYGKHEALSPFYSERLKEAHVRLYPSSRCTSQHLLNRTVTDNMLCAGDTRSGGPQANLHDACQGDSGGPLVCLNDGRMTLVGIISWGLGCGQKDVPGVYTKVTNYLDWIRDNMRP
Protocol: as §1

FXlla = target: T3, FXlla (Homo sapiens, UniProt P00748); test: Cross reactivity assay, FXIIa; conditions: 145 nM FXlla
T3 construct: initiated by addition of active coagulation factors such as FXlla, FXla, or FIXa
T3 sequence (P00748 373-615 limits assumed): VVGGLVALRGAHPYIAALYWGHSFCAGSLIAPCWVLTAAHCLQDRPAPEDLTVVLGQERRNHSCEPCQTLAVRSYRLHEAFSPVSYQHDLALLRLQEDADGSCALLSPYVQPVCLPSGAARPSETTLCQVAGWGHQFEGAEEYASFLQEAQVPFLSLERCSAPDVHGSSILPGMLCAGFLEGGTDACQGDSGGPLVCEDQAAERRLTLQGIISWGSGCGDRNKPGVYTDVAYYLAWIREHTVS
Protocol: as §1

## CC[C@H](C)[C@H](NC(=O)COCCOCCOC)C(=O)N[C@@H](CCC(=O)O)C(=O)NCC(=O)N[C@@H](CCCNC(=N)N)C(=O)Nc1ccc2nc(C3=N[C@@H](C(=O)O)CS3)sc2c1 [MePEG2-IEGR] ({Decanoyl(3,6,9-trioxa)}-IEGR-X1)
FXa [1]
  Kcat=Vmax/[FXa]: 1.05e+14 s⁻¹
FXa [1]; 37 °C
  Km: 619 µM
FXa [1]; 37 °C, luciferase/ATP/Mg readout
  Vmax: 468000 RLU
FXa [2]
  cross-reactivity with serine proteases other than FXa: minimal cross-reactivity
thrombin
  luminescent signal: ~30.000 RLU
plasmin
  luminescent signal: ~8.000 RLU
[3]
  luminescent signal: ~6.000 RLU
FXlla
  luminescent signal: ~500 RLU
